# Test results as given in patent US11247994B2, “6-dithio-substituted-2′-deoxyguanosine compound, preparation method thereof and use thereof” (ZHEJIANG UNIVERSITY, priority 2018, dated 2022).
# Columns and labels:
# TrxR/Trx-1 = biological target: T1, TrxR/Trx-1 (Homo sapiens, UniProt P10599); assay: Ellman test, inhibition of TrxR/Trx-1 activity; assay type: biochemical; settings: Ellman reaction, 37° C. 30 min, absorbance 412 nm; read-out: IC50, inhibition of TrxR/Trx-1 activity
# T1 sequence (P10599 2-105 limits assumed): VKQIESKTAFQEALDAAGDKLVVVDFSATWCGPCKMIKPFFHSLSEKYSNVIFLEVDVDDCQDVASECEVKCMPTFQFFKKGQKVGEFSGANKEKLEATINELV
# From the text: Ellman Test—Inhibitory Effect of 6-dithio-substituted-2′-deoxyguanosine Derivative Analogues on TrxR/Trx-1 Activity
# A TrxR/TR experiment based on the Ellman reaction was used to determine the inhibitory activity of candidate compounds. Ellman reaction is that 5,5′-dithiobis (2-nitrobenzoic acid) (DTNB) reacts with sulfhydryl (—SH) to form a yellow substance with absorption at 412 nm. The increase of absorption can be equivalent to the decrease of NADPH mediated by TrxR, thus further judging the activity of TrxR/Trx-1. All experiments were carried out on 96-well plates. Before the start of the enzyme reaction, five groups of corresponding test compound stock solutions with different concentrations were prepared. In the TrxR/Trx-1 reaction, a total volume per well was 60 μL, including 100 mM HEPES, 5 mM EDTA (HE buffer, pH 7.5), 1 mM NADPH, 1.0 μM TrxR, 0.8 μM Trx-1, 2.5 mg/mL bovine insulin and the required concentration of compounds to be tested. No compound to be tested was added to the control group. No compound to be tested, TrxR and Trx-1 were added in the blank group. The plate was shaken on an oscillator for 30 seconds to fully mix the reactants. After incubation at 37° C. for 30 min, 100 μL of the prepared mixture containing 6 M guanidine hydrochloride, 50 mm Tris and 10 mm DTNB was added to terminate the reaction. After 15 minutes of incubation, the absorbance was measured at 412 nm. Finally, TrxR/Trx-1 activity %=(Atest−Akb)/(Acontrol−Akb), that is, the relative percentage of TrxR/Trx-1 activity was the activity inhibited by adding 2′-deoxyguanosine derivatives relative to the activity without 2′-deoxyguanosine derivatives. The data were fitted into a concentration response curve with a variable slope, and the IC50 value was calculated from the curve.
# NCM460 = assay: MTT assay, cell growth inhibition, NCM460; assay type: cell-based; settings: Homo sapiens, 48 hours, read-out: Tumor cell growth inhibition IC50, NCM460
# From the text: (§1) MTT Assay—Inhibitory Effect of 6-dithio-substituted-2′-deoxyguanosine Derivatives on Tumor Cell Growth
# (§2) We measured the tumor cell growth inhibitory activity of candidate compounds by MTT assay. Human tumor cells in logarithmic growth phase were digested with 0.25% pancreatin for a certain time, centrifuged, re-suspended and counted with a blood cell counting plate to prepare a cell suspension, and the cell suspension was adjusted to 1.0×10^4-1×10^5 cells/mL. The cell suspension was inoculated into a 96-well culture plate, 100 μL per well, and cultured in an incubator with saturated humidity, 37° C. and 5% CO2 for 24 hours until the cells completely adhered to the wall. The test compound was diluted to the required concentration with a complete medium, the complete medium of the 96-well culture plate inoculated with human tumor cells was sucked out, a medicament-containing medium was added, 100 μL per well, the final concentration of DMSO was less than 0.1%, and the culture plate was put in an incubator for 48 hours. 10 μl of MTT was added to each well of the 96-well plate, and the culture was continued for 4 h. The culture was stopped and the culture solution in the well was carefully sucked off. 150 μL DMSO was added to each well, and shaken at a low speed for 10 min on a shaking table, so that the crystal was fully dissolved. The absorbance of each well was measured at OD 570 nm of an enzyme-linked immunosorbent assay instrument. At the same time, zeroing wells (the culture medium, MTT, dimethyl sulfoxide) and control wells (cells, a drug dissolution medium with the same concentration, a culture solution, MTT, dimethyl sulfoxide) were set up, and the cell growth inhibitory activity was calculated with the corresponding solvents as the control. 3-6 multiple wells in each group were set up with repetition of several times. Cell viability of control=(Adrug group−Azeroing well)/(Acontrol well−Azeroing well)*100%. Drawing was drawn, the data were fitted into a concentration response curve with a variable slope, and IC50 value was calculated from the curve.
# [1] = system: human colon cancer cells HCT116; assay: MTT assay, tumor cell growth inhibition, HCT116; assay type: cell-based; settings: HCT-116, 48 hours
# From the text: as §1, §2
# [2] = system: human colon cancer cells SW620; assay: MTT assay, tumor cell growth inhibition, SW620; assay type: cell-based; settings: SW-620, 48 hours
# From the text: as §1, §2
# [3] = system: human colon cancer cells HT29; assay: MTT assay, tumor cell growth inhibition, HT29; assay type: cell-based; settings: HT-29, 48 hours
# From the text: as §1, §2
# [4] = system: human melanoma cells A375; assay: MTT assay, tumor cell growth inhibition, A375; assay type: cell-based; settings: A-375, 48 hours
# From the text: as §1, §2
# [5] = system: human gastric cancer cells BGC; assay: MTT assay, tumor cell growth inhibition, BGC; assay type: cell-based; settings: 48 hours
# From the text: as §1, §2
# [6] = system: human leukemia cells K562; assay: MTT assay, tumor cell growth inhibition, K562; assay type: cell-based; settings: 48 hours
# From the text: as §1, §2
# [7] = system: human liver cancer cells HepG2; assay: MTT assay, tumor cell growth inhibition, HepG2; assay type: cell-based; settings: 48 hours
# From the text: as §1, §2
# [8] = system: human non-small cell lung cancer A549; assay: MTT assay, tumor cell growth inhibition, A549; assay type: cell-based; settings: 48 hours
# From the text: as §1, §2
# [9] = system: human breast cancer cells Bcap37; assay: MTT assay, tumor cell growth inhibition, Bcap37; assay type: cell-based; settings: 48 hours
# From the text: as §1, §2
# [10] = system: human colon cancer cell line HCT116 subcutaneous transplanted tumor; assay: Tumor-bearing test in nude mice, HCT116 subcutaneous transplanted tumor (tumor volume, TUNEL); assay type: in vivo; settings: HCT116 model; for Extent of apoptosis in tumor tissue (TUNEL staining, rank order): frozen tumor sections, DAPI and TUNEL, G group = blank; for Inhibitory effect on the growth of subcutaneous transplanted tumor tissue in nude mice (rank order, from slope of tumor volume): compound A 2 mg/kg first 8 times, 10 mg/kg last 4 times, others equimolar, KB = blank
# From the text: Tumor-Bearing Test in Nude Mice—Inhibitory Effect of 6-Dithio-Substituted-2′-Deoxyguanosine Derivatives on the Growth of Subcutaneous Transplanted Tumor Tissue in Nude Mice
# 1) Tumor-Bearing Mouse Model of Human Colon Cancer Cell Line HCT116
# (§3) We took human colon cancer cell line HCT116 as the research object, and established a subcutaneous transplanted tumor model of human colon cancer in 32 immunodeficient nude mice. The 24th generation HCT116 cells in logarithmic growth phase were digested with pancreatin to prepare a single-cell suspension, and 1×10^7 cells were inoculated subcutaneously in the right armpit of male nude mice about 5 weeks old. After inoculation, cyclophosphamide (100 mg/kg) was injected intraperitoneally for two consecutive days. […] On the 20th day after colon cancer cell HCT116 was implanted subcutaneously, nude mice were divided into 7 groups by a random number table method, including a test drug group, a positive control group and a blank control group. Specifically, group A: the compound A was administrated; Group B: the compound B was administrated; Group C: the compound C was administrated; Group D: the compound D was administrated; Group E: the compound 6-thio-DG was administrated; Group F: the compound PX-12 was administrated; Group G: blank group, without administration of any compound. Except group C with 3 rats and group G with 4 rats, all other 5 groups had 5 rats, they mice were labeled and injected by tail vein once every two days for 24 days, 12 times, with the dose of compound A being 2 mg/kg for the first 8 times and 10 mg/kg for the last 4 times, and the dosages of other drugs being the same molar weights. The tumor volume was calculated by taking the length of the tumor as the longest diameter and the width as the corresponding vertical diameter, and the tumor volume V=(length×width^2) mm^3/2. 48 hours after the last treatment, blood was taken from the eyes, and then the animals were killed. Blood was centrifuged to get the supernatant, and then blood biochemical analysis was performed. Paraffin embedded sections of fixed tissues were stained with HE. The tumor mass in a frozen tissue was sectioned in a frozen state, and then stained by DAPI and TUNEL to judge the apoptosis of the tumor tissue in nude mice.
# [11] = Blood biochemical analysis and HE staining of tissues in HCT116 tumor-bearing nude mice; assay type: in vivo; settings: tail vein once every two days, 12 times, blood 48 hours after the last treatment
# Description: as §3
# [12] = system: human breast cancer cells MCF7; assay: MTT assay, tumor cell growth inhibition, MCF7; assay type: cell-based; settings: 48 hours
# From the text: as §1, §2
# [13] = tail vein once every two days for 24 days
Structure (SMILES),IC50 (TrxR/Trx-1) [µM],IC50 (NCM460) [µM],IC50 [1] [µM],IC50 [2] [µM],IC50 [3] [µM],IC50 [4] [µM],IC50 [5] [µM],IC50 [6] [µM],IC50 [7] [µM],IC50 [8] [µM],IC50 [9] [µM],"Extent of apoptosis in tumor tissue (TUNEL staining, rank order) [10]","Inhibitory effect on the growth of subcutaneous transplanted tumor tissue in nude mice (rank order, from slope of tumor volume) [10, 13]",Alanine aminotransferase [11] [U/L],Albumin [11] [g/L],Alkaline phosphatase [11] [U/L],Aspartate aminotransferase [11] [U/L],BUN [11] [mmol/L],Chloride ion [11] [mmol/L],Creatine kinase [11] [U/L],also measured
"CCC(C)SSc1nc(N)nc2c1ncn2C1C[C@H](O)[C@@H](CO)O1 (stereo partly shown) [Compound A, 6-(sec-butyldithio)-2′-deoxyguanosine]",31.7,> 1000,1.27,0.21,4.55,0.6,6.09,9.88,10 to 50,30.8,18.2,D group>A group≈B group≈E group (6-thio-dG group)>C group>F group (PX-12 group)>G group (KB group),D>B≈A≈6-thio-dG>PX-12>C>KB,33.3,24.8,36.0,153.4,10.7,113.8,1896,"Ability to inhibit the growth of transplanted tumor tissue compared with positive controls ([10]; tail vein once every two days for 24 days, equimolar doses): close to that of the positive control 6-thio-dG and stronger than that of the positive control PX-12; Creatinine [11]: -0.80 µmol/L; Glucose [11]: 2.21 mmol/L; Potassium ion [11]: 7.56 mmol/L; Sodium ion [11]: 155.6 mmol/L; Total bilirubin [11]: 0.40 µmol/L; Total cholesterol [11]: 2.99 mmol/L; Total protein [11]: 52.6 g/L; Triglyceride [11]: 0.84 mmol/L"
"Nc1nc2c(ncn2[C@H]2C[C@H](O)[C@@H](CO)O2)c(=S)[nH]1 [Compound 6-thio-dG, 6-thio-2′-deoxyguanosine, reference compound]",> 100,> 1000,17.5,> 100,3.04,0.4,> 100,23.3,< 10,33.6,> 100,D group>A group≈B group≈E group (6-thio-dG group)>C group>F group (PX-12 group)>G group (KB group),D>B≈A≈6-thio-dG>PX-12>C>KB,44.3,29.8,49.6,172.4,11.5,120.8,2125,IC50 [12]: > 100 µM; Creatinine [11]: 12.0 µmol/L; Glucose [11]: 3.12 mmol/L; Potassium ion [11]: 7.18 mmol/L; Sodium ion [11]: 158.8 mmol/L; Total bilirubin [11]: -0.10 µmol/L; Total cholesterol [11]: 2.62 mmol/L; Total protein [11]: 51.8 g/L; Triglyceride [11]: 1.10 mmol/L
